The target of assay [1] is T1, beta-catenin/TCF4 engagement (Homo sapiens, UniProt P35222).
T1 construct: expressed in transfected cells; host or cells: HEK293
T1 sequence (P35222 1-781): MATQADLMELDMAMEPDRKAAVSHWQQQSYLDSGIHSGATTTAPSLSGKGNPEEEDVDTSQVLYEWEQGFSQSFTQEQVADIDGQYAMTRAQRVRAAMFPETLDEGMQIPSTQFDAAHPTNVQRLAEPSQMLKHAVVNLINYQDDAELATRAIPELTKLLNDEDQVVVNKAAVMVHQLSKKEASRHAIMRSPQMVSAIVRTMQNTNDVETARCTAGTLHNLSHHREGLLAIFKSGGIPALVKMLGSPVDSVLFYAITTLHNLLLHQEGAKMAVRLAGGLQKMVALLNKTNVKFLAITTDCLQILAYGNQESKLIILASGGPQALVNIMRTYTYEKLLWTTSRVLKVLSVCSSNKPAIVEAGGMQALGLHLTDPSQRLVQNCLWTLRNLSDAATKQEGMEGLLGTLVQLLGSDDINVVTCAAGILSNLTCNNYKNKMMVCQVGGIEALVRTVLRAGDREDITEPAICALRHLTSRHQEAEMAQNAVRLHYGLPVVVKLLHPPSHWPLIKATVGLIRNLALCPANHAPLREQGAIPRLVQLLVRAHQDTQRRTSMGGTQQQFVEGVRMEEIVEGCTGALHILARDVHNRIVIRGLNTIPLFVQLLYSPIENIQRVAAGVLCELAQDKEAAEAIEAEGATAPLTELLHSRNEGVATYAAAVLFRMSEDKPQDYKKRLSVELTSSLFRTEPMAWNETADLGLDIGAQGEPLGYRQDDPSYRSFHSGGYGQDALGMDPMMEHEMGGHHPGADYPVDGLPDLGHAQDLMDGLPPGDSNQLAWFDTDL
In words: Nano-BRET target engagement assay (B-cat-Halo & TCF4-Luc in HEK293 cells). The format is cell-based. As to conditions: read-out: NanoBRET Abs IC50.

Assay [2] concerns the target T2, full-length beta-Catenin (Uniprot ID P35222) (Homo sapiens, UniProt P35222).
T2 construct: 10 nM full-length beta-Catenin (Uniprot ID P35222)
T2 sequence (P35222 1-781): T1 sequence (P35222 1-781)
In words: Fluorescence polarization IC50 (beta-catenin / 5FAM-TCF4 10-53 competition). The format is binding. As to conditions: fluorescence polarization; read-out: beta-Catenin FP IC50.

pIC50: −log10 of the molar value.

Regarding `CC(=O)N1CCC[C@]12CC=CCCCC1(CCCC=CCCCOC(=O)N3CC[C@@](C(=O)N[C@@H](Cc4ccsc4)C(=O)N[C@@H](Cc4csc5ccccc45)C(=O)N[C@@H](CCC(N)=O)C(N)=O)(C3)NC(=O)[C@H](CC(N)=O)NC(=O)[C@H](Cc3cccc(C(=O)O)c3)NC(=O)[C@H](C)NC(=O)[C@H](C)NC(=O)[C@H](CCc3ccc(O)cc3)NC(=O)[C@H](CC(=O)O)NC1=O)NC(=O)[C@H](CC(C)(C)C)NC(=O)[C@H](CC(=O)O)NC2=O` (stereo partly drawn) [I-2114, Ac-PL3-Asp-Npg-B5-Asp-hTyr-Ala-Ala-3COOHF-Asn-PyrS2-3Thi-BztA-Gln-NH2], the pIC50 (in general, the negative decadic logarithm of the IC50, by convention in mol/L) was below 4.70 in assay [1] and 7.49 in assay [2].
As for `CC(=O)N1CCC[C@]12CC=CCCCC1(CCCC=CCCCOC(=O)N3CC[C@@](C(=O)N[C@@H](Cc4ccsc4)C(=O)N[C@@H](Cc4csc5ccccc45)C(=O)N[C@@H](CCC(N)=O)C(N)=O)(C3)NC(=O)[C@H](CC(N)=O)NC(=O)[C@H](Cc3cccc(C(=O)O)c3)NC(=O)[C@H](C)NC(=O)[C@H](C)NC(=O)[C@H](CCc3ccc(O)cc3)NC(=O)[C@H](CC(=O)O)NC1=O)NC(=O)[C@H](CC(C)(C)C)NC(=O)[C@H](CC(=O)O)NC2=O` (stereo partly drawn) [I-2115, Ac-PL3-Asp-Npg-B5-Asp-hTyr-Ala-Ala-3COOHF-Asn-PyrS2-3Thi-BztA-Gln-NH2], the negative logarithm of the IC50 (pIC50) in assay [1] was below 4.70; in assay [2], 7.54.
As to `CC(=O)N1CCC[C@]12CC=CCCCC1(CCCC=CCCCOC(=O)N3CC[C@@](C(=O)N[C@@H](Cc4ccsc4)C(=O)N[C@@H](Cc4csc5ccccc45)C(=O)N[C@@H](CCC(N)=O)C(N)=O)(C3)NC(=O)[C@H](CCO)NC(=O)[C@H](Cc3cccc(C(=O)O)c3)NC(=O)[C@H](C)NC(=O)[C@H](C)NC(=O)[C@H](CCc3ccc(O)cc3)NC(=O)[C@H](CC(=O)O)NC1=O)NC(=O)[C@H](CC(C)(C)C)NC(=O)[C@H](CC(=O)O)NC2=O` (stereo partly drawn) [I-2116, Ac-PL3-Asp-Npg-B5-Asp-hTyr-Ala-Ala-3COOHF-Hse-PyrS2-3Thi-BztA-Gln-NH2], the negative logarithm of the IC50 (pIC50) was 4.48 in assay [1] and 7.72 in assay [2].
With `CC(=O)N1CCC[C@]12CC=CCCCC1(CCCC=CCCCOC(=O)N3CC[C@@](C(=O)N[C@@H](Cc4ccsc4)C(=O)N[C@@H](Cc4csc5ccccc45)C(=O)N[C@@H](CCC(N)=O)C(N)=O)(C3)NC(=O)[C@H](CCO)NC(=O)[C@H](Cc3cccc(C(=O)O)c3)NC(=O)[C@H](C)NC(=O)[C@H](C)NC(=O)[C@H](CCc3ccc(O)cc3)NC(=O)[C@H](CC(=O)O)NC1=O)NC(=O)[C@H](CC(C)(C)C)NC(=O)[C@H](CC(=O)O)NC2=O` (stereo partly drawn) [I-2117, Ac-PL3-Asp-Npg-B5-Asp-hTyr-Ala-Ala-3COOHF-Hse-PyrS2-3Thi-BztA-Gln-NH2], the negative logarithm of the IC50 (pIC50) is below 4.70 in assay [1] and 7.72 in assay [2].
For `CC(=O)N1CCC[C@]12CC=CCCCC1(CCCC=CCCCOC(=O)N3CC[C@@](C(=O)N[C@@H](Cc4ccsc4)C(=O)N[C@@H](Cc4csc5ccccc45)C(=O)N[C@@H](CCC(N)=O)C(N)=O)(C3)NC(=O)[C@H](CC(N)=O)NC(=O)[C@H](Cc3cccc(C(=O)O)c3)NC(=O)[C@H](C)NC(=O)[C@H](C)NC(=O)[C@H](Cc3c[nH]cn3)NC(=O)[C@H](CC(=O)O)NC1=O)NC(=O)[C@H](CC(C)(C)C)NC(=O)[C@H](CC(=O)O)NC2=O` (stereo partly drawn) [I-2118, Ac-PL3-Asp-Npg-B5-Asp-His-Ala-Ala-3COOHF-Asn-PyrS2-3Thi-BztA-Gln-NH2] the same measures were below 4.70 and 7.68.
Consider `CC(=O)N1CCC[C@]12CC=CCCCC1(CCCC=CCCCOC(=O)N3CC[C@@](C(=O)N[C@@H](Cc4ccsc4)C(=O)N[C@@H](Cc4csc5ccccc45)C(=O)N[C@@H](CCC(N)=O)C(N)=O)(C3)NC(=O)[C@H](CC(N)=O)NC(=O)[C@H](Cc3cccc(C(=O)O)c3)NC(=O)[C@H](C)NC(=O)[C@H](C)NC(=O)[C@H](Cc3c[nH]cn3)NC(=O)[C@H](CC(=O)O)NC1=O)NC(=O)[C@H](CC(C)(C)C)NC(=O)[C@H](CC(=O)O)NC2=O` (stereo partly drawn) [I-2119, Ac-PL3-Asp-Npg-B5-Asp-His-Ala-Ala-3COOHF-Asn-PyrS2-3Thi-BztA-Gln-NH2], for which the negative logarithm of the IC50 (pIC50) in assay [1] was below 4.70; in assay [2] it was 7.54.
For `CC(=O)N1CCC[C@]12CC=CCCCC1(CCCC=CCCCOC(=O)N3CC[C@@](C(=O)N[C@@H](Cc4ccsc4)C(=O)N[C@@H](Cc4csc5ccccc45)C(=O)N[C@@H](CCC(N)=O)C(N)=O)(C3)NC(=O)[C@H](CCO)NC(=O)[C@H](Cc3cccc(C(=O)O)c3)NC(=O)[C@H](C)NC(=O)[C@H](C)NC(=O)[C@H](Cc3c[nH]cn3)NC(=O)[C@H](CC(=O)O)NC1=O)NC(=O)[C@H](CC(C)(C)C)NC(=O)[C@H](CC(=O)O)NC2=O` (stereo partly drawn) [I-2120, Ac-PL3-Asp-Npg-B5-Asp-His-Ala-Ala-3COOHF-Hse-PyrS2-3Thi-BztA-Gln-NH2] the same measures were 4.43 and 7.96.
As to `CC(=O)N1CCC[C@]12CC=CCCCC1(CCCC=CCCCOC(=O)N3CC[C@@](C(=O)N[C@@H](Cc4ccsc4)C(=O)N[C@@H](Cc4csc5ccccc45)C(=O)N[C@@H](CCC(N)=O)C(N)=O)(C3)NC(=O)[C@H](CCO)NC(=O)[C@H](Cc3cccc(C(=O)O)c3)NC(=O)[C@H](C)NC(=O)[C@H](C)NC(=O)[C@H](Cc3c[nH]cn3)NC(=O)[C@H](CC(=O)O)NC1=O)NC(=O)[C@H](CC(C)(C)C)NC(=O)[C@H](CC(=O)O)NC2=O` (stereo partly drawn) [I-2121, Ac-PL3-Asp-Npg-B5-Asp-His-Ala-Ala-3COOHF-Hse-PyrS2-3Thi-BztA-Gln-NH2], the figures for the pIC50 in assay [1] and in assay [2] were below 4.70 and 7.92, respectively.
Taken in the same sequence, the figures for `CC(=O)N1CCC[C@]12CC=CCCCC1(CCCC=CCCCOC(=O)N3CC[C@@](C(=O)N[C@@H](Cc4ccsc4)C(=O)N[C@@H](Cc4csc5ccccc45)C(=O)N[C@@H](CCC(N)=O)C(N)=O)(C3)NC(=O)[C@H](CC(C)C)NC(=O)[C@H](Cc3cccc(C(=O)O)c3)NC(=O)[C@H](C)NC(=O)[C@H](C)NC(=O)[C@H](Cc3c[nH]cn3)NC(=O)[C@H](CC(=O)O)NC1=O)NC(=O)[C@H](CC(C)(C)C)NC(=O)[C@H](CC(=O)O)NC2=O` (stereo partly drawn) [I-2122, Ac-PL3-Asp-Npg-B5-Asp-His-Ala-Ala-3COOHF-Leu-PyrS2-3Thi-BztA-Gln-NH2] were 4.46 and 7.92.
For `CC(=O)N1CCC[C@]12CC=CCCCC1(CCCC=CCCCOC(=O)N3CC[C@@](C(=O)N[C@@H](Cc4ccsc4)C(=O)N[C@@H](Cc4csc5ccccc45)C(=O)N[C@@H](CCC(N)=O)C(N)=O)(C3)NC(=O)[C@H](CC(C)C)NC(=O)[C@H](Cc3cccc(C(=O)O)c3)NC(=O)[C@H](C)NC(=O)[C@H](C)NC(=O)[C@H](Cc3c[nH]cn3)NC(=O)[C@H](CC(=O)O)NC1=O)NC(=O)[C@H](CC(C)(C)C)NC(=O)[C@H](CC(=O)O)NC2=O` (stereo partly drawn) [I-2123, Ac-PL3-Asp-Npg-B5-Asp-His-Ala-Ala-3COOHF-Leu-PyrS2-3Thi-BztA-Gln-NH2] the same measures were 4.57 and 7.92.
`CC(=O)N1CCC[C@]12CC=CCCCC1(CCCC=CCCCOC(=O)N3CC[C@@](C(=O)N[C@@H](Cc4ccsc4)C(=O)N[C@@H](Cc4csc5ccccc45)C(=O)N[C@@H](CCC(N)=O)C(N)=O)(C3)NC(=O)[C@H](CC(C)C)NC(=O)[C@H](Cc3cccc(C(=O)O)c3)NC(=O)[C@H](C)NC(=O)[C@H](C)NC(=O)[C@H](Cc3ccc(O)cc3)NC(=O)[C@H](CC(=O)O)NC1=O)NC(=O)[C@H](CC(C)(C)C)NC(=O)[C@H](CC(=O)O)NC2=O` (stereo partly drawn) [I-2126, Ac-PL3-Asp-Npg-B5-Asp-Tyr-Ala-Ala-3COOHF-Leu-PyrS2-3Thi-BztA-Gln-NH2]: the negative logarithm of the IC50 (pIC50) in assay [1] is 4.53; in assay [2], 7.17.
For `CC(=O)N1CCC[C@]12CC=CCCCC1(CCCC=CCCCOC(=O)N3CC[C@@](C(=O)N[C@@H](Cc4ccsc4)C(=O)N[C@@H](Cc4csc5ccccc45)C(=O)N[C@@H](CCC(N)=O)C(N)=O)(C3)NC(=O)[C@H](CCO)NC(=O)[C@H](Cc3cccc(C(=O)O)c3)NC(=O)[C@H](C)NC(=O)[C@H](C)NC(=O)[C@H](Cc3c[nH]c4ccccc34)NC(=O)[C@H](CC(=O)O)NC1=O)NC(=O)[C@H](CC(C)(C)C)NC(=O)[C@H](CC(=O)O)NC2=O` (stereo partly drawn) [I-2128, Ac-PL3-Asp-Npg-B5-Asp-Trp-Ala-Ala-3COOHF-Hse-PyrS2-3Thi-BztA-Gln-NH2] the same measures were 4.57 and 7.54.
As for `CC(=O)N1CCC[C@]12CC=CCCCC1(CCCC=CCCCOC(=O)N3CC[C@@](C(=O)N[C@@H](Cc4ccsc4)C(=O)N[C@@H](Cc4csc5ccccc45)C(=O)N[C@@H](C)C(N)=O)(C3)NC(=O)[C@H](CC(N)=O)NC(=O)[C@H](Cc3ccccc3)NC(=O)[C@H](C)NC(=O)[C@H](C)NC(=O)[C@H]([C@@H](C)O)NC(=O)[C@H](CC(N)=O)NC1=O)NC(=O)[C@H](CC(C)(C)C)NC(=O)[C@H](CC(=O)O)NC2=O` (stereo partly drawn) [I-2142, Ac-PL3-Asp-Npg-B5-Asn-Thr-Ala-Ala-Phe-Asn-PyrS2-3Thi-BztA-Ala-NH2], the pIC50 in assay [1] was below 4.70; in assay [2], 6.57.

Source of the values: patent US20240116985A1, “STAPLED PEPTIDES AND METHODS THEREOF” (priority 2020, published 2024).
